Reference: ChEMBL document CHEMBL5465560, “Selectivity Literature for EUbOPEN Chemogenomic Library” (2024)

How the values were obtained:
[1] = target: Cyclin-dependent kinase-like 3 (Homo sapiens) (UniProt Q8IVW4); settings: at 10 µM
[2] = target: T1, 5-hydroxytryptamine receptor 3A (Homo sapiens) (UniProt P46098); test: Selectivity interaction (Panel of non-epigenetic targets (kinases, GPCRs, ion channels, and transporters, Eurofins) ) EUB0000271b HTR3A; settings: at 1 µM
T1 sequence (whole entry): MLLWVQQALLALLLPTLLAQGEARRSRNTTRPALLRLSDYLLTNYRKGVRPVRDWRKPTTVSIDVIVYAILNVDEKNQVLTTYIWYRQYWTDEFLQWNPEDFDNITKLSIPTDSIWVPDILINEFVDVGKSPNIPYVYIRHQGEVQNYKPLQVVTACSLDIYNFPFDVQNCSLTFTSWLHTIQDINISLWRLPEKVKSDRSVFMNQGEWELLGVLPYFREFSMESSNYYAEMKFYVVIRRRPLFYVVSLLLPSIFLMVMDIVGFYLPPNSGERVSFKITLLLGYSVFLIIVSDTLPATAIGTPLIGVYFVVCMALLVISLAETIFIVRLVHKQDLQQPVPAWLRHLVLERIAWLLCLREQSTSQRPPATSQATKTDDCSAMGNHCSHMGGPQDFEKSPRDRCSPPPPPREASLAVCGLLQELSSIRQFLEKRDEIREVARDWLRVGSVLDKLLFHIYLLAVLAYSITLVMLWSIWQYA

[3] = target: Serine/threonine-protein kinase 35 (Homo sapiens) (UniProt Q8TDR2); test: Selectivity interaction (KinomeScan (DiscoverX)) EUB0001049a STK35; settings: at 1 µM
Serine/threonine-protein kinase 35 (Homo sapiens), sequence (Q8TDR2 whole entry): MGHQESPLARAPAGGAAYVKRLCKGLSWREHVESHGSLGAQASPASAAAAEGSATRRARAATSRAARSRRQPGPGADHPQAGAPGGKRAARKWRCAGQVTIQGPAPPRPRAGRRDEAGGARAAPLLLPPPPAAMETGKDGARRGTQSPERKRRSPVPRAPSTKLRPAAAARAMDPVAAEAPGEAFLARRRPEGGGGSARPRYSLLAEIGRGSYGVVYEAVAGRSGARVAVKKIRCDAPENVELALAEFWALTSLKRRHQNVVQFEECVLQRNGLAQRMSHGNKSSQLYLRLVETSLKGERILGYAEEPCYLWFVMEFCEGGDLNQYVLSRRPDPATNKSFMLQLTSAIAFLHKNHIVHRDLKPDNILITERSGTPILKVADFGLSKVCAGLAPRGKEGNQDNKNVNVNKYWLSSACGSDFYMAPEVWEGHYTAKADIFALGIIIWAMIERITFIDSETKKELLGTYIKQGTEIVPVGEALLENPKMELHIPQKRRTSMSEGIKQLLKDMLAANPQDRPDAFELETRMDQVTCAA

[4] = target: Tyrosine-protein kinase Lck (Homo sapiens, UniProt P06239); test: Selectivity interaction (KinomeScan (DiscoverX)) EUB0001049a LCK; settings: at 1 µM
Tyrosine-protein kinase Lck, sequence (P06239 2-509 limits assumed): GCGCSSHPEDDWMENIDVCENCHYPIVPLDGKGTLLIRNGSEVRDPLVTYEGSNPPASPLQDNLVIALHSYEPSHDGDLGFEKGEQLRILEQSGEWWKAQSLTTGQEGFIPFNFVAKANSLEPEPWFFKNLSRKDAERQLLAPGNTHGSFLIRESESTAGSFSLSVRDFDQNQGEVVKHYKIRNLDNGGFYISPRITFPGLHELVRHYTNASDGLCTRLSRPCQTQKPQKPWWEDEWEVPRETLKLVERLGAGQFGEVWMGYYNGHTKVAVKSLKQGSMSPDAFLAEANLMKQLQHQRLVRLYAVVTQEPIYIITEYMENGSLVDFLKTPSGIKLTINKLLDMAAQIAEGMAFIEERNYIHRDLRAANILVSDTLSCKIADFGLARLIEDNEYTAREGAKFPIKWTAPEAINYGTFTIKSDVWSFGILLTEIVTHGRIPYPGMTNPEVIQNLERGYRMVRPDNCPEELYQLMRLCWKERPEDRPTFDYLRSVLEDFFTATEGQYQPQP

[5] = target: Protein kinase C theta type (Homo sapiens, UniProt Q04759); test: Selectivity interaction (KinomeScan (DiscoverX)) EUB0000618a PRKCQ; settings: at 10 µM
Protein kinase C theta type, sequence (Q04759 whole entry, looked up): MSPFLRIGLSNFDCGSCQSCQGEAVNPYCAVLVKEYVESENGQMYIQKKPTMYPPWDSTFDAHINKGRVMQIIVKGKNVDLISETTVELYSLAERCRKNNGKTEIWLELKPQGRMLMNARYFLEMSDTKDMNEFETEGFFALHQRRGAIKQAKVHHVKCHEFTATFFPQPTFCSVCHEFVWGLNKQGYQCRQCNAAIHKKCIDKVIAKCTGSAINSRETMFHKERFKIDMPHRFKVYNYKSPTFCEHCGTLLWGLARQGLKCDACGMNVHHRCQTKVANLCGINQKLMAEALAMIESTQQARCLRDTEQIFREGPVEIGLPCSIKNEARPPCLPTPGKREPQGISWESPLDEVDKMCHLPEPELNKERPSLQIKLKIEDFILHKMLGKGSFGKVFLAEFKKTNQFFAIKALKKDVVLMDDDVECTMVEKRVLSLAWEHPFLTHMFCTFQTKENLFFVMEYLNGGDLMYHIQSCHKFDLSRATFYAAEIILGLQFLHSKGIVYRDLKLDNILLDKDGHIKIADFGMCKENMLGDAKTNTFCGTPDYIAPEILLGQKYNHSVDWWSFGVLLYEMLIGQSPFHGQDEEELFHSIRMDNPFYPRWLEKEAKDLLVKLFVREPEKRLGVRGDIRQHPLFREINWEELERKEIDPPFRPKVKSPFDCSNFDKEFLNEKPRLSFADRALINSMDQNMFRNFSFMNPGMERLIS

[6] = target: T2, Interleukin-1 receptor-associated kinase 3 (Homo sapiens) (UniProt Q9Y616); test: Selectivity interaction (ActivX KiNativ screen (kinase selectivity in THP-1 cell lysates)) EUB0000639a IRAK3; type: subcellular; settings: lysate, at 0.2 µM
T2 sequence (whole entry): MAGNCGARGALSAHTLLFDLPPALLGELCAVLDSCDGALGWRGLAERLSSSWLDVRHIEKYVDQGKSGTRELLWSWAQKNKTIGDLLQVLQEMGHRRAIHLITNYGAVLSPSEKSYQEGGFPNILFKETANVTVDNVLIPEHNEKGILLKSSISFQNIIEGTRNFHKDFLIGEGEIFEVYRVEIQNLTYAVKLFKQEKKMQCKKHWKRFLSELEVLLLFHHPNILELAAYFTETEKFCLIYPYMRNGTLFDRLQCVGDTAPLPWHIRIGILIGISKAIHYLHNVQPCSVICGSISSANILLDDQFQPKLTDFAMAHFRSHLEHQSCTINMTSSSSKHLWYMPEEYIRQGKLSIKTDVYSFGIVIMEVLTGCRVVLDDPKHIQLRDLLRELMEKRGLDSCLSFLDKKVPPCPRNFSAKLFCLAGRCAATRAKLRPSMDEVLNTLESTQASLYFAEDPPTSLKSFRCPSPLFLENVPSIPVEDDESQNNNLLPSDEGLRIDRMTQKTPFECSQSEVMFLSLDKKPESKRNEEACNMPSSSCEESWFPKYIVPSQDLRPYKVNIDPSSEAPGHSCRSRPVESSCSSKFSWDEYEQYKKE

[7] = target: T3, Tyrosine-protein kinase receptor TYRO3 (Homo sapiens) (UniProt Q06418); settings: at 10 µM
T3 sequence (whole entry): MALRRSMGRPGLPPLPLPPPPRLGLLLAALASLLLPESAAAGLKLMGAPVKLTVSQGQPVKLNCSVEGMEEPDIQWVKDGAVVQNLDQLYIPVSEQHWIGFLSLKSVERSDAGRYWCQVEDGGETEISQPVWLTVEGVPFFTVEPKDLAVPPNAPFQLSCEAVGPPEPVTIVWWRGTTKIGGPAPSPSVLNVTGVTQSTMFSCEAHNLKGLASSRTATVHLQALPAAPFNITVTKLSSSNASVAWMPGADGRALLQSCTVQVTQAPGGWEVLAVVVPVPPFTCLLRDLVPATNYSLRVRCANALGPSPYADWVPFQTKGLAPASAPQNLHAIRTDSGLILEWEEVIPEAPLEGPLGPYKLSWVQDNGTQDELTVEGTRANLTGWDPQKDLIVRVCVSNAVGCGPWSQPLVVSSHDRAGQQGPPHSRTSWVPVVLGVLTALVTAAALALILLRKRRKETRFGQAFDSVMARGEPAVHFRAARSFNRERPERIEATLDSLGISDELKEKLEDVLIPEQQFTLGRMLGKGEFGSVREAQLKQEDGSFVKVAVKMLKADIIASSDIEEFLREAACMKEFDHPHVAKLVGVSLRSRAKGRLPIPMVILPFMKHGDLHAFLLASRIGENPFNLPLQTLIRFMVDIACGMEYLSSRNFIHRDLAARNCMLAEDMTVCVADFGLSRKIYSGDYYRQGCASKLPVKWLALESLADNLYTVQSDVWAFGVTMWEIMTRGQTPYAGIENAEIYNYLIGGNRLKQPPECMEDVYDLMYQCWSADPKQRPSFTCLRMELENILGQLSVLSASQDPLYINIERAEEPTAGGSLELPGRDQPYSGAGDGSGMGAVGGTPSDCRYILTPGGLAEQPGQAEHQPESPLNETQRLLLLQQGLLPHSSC

[8] = target: Serine/threonine-protein kinase tousled-like 2 (Homo sapiens) (UniProt Q86UE8); test: Selectivity interaction (Ambit KINOMEscan and KiNATiv profiling in Jurkat cells) EUB0000090b TLK2; type: cell-based; settings: at 1 µM
Serine/threonine-protein kinase tousled-like 2 (Homo sapiens), sequence (Q86UE8 whole entry, looked up): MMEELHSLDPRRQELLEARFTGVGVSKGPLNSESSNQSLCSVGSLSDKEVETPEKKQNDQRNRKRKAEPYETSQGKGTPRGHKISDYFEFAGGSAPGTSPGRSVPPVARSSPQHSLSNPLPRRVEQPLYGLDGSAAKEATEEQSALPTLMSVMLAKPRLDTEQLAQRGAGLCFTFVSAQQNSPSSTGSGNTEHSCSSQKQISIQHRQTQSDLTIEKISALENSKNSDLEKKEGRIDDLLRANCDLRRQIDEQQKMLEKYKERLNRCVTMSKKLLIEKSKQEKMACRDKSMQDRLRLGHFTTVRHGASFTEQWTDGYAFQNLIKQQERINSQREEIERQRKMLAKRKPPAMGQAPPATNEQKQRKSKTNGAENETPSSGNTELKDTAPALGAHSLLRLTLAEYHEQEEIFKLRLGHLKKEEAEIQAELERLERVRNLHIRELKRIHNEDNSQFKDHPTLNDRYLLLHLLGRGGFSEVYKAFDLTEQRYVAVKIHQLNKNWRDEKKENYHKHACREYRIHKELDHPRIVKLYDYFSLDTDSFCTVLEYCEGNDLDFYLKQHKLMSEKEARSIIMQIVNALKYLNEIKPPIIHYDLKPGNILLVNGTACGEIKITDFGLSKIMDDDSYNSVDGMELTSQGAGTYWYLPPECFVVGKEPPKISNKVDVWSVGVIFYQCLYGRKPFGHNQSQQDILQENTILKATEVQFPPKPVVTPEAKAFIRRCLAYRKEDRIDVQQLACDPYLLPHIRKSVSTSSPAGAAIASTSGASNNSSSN

Cyclin-dependent kinase-like 3 (Homo sapiens), sequence (Q8IVW4 whole entry, looked up): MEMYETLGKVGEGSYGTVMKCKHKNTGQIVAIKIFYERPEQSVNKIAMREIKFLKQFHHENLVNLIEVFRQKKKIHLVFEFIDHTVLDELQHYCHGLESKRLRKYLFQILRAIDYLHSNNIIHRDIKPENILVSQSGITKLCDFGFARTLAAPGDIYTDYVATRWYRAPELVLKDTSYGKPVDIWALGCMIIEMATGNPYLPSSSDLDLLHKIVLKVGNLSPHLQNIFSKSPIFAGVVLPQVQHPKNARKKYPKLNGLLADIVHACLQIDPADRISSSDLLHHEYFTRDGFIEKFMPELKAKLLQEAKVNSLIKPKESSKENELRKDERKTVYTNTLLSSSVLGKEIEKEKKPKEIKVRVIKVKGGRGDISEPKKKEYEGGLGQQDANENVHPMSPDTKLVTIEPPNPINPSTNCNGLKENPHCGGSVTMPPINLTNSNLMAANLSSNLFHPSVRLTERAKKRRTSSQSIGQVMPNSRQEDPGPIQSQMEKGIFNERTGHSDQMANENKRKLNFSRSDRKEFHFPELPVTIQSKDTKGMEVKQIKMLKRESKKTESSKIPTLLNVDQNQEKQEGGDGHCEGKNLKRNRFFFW

## Cc1cc([C@@H](C)Nc2ccccc2C(=O)O)c2nc(N3CCOCC3)cc(=O)n2c1 [AZD-6482]
[1]
  % of control: 90%

## Cc1cc(C)cc([C@@H]2c3cc(C)ccc3NC(=O)CN2C(=O)c2ccc(Br)s2)c1
[2]
  % of inhibition: -5%

## COc1cc(Nc2nc(C)cc(-c3cnn4nc(OC)ccc34)n2)cc(C(F)(F)F)c1
[3]
  % of control: 100%
[4]
  % of control: 96%

## O[C@H]1CC[C@H](Nc2ncc3nc(Nc4c(F)cc(F)cc4F)n([C@H]4CCOC4)c3n2)CC1
[5]
  % of control: 100%

## CC[C@@H]1[C@H](F)C(=O)N[C@@H]1COc1nccc2cc(C(N)=O)c(OC)cc12 [ZIMLOVISERTIB]
[6]
  % of inhibition: 34%

## CCN(CC)CCCCNc1ncc2cc(-c3cc(OC)cc(OC)c3)c(NC(=O)NC(C)(C)C)nc2n1
[7]
  % of control: 100%

## CN(C)C/C=C/C(=O)Nc1ccc(C(=O)N2CCCC(Nc3ncc(Cl)c(-c4c[nH]c5ccccc45)n3)C2)cc1 (stereo not drawn)
[8]
  % of control: 93%
